In article PMC12030627, “Radioiodinated Bicyclic RGD Peptide Derivatives for Enhanced Tumor Accumulation” (Pharmaceuticals, 2025):
Where two headings read alike, the source gives them in different places. Starred links: 1 amine or outer side, 2 acyl side, 3 side chain; linkers in the order of their positions; H or OH if unused. Positions of bridges follow the written chain, without caps; N, C: chain ends. Non-standard residues stand in square brackets, D forms with d. Residues, ends and D or L forms follow the SMILES beside them. *: point of attachment. TBMB = c1c(C[*:1])cc(C[*:3])cc1C[*:2]; Palmitoyl = CCCCCCCCCCCCCCCC(=O)*; Benzoyl(3-I) = O=C(c1cccc(I)c1)*; 4Abz = Nc1ccc(C(=O)O)cc1

Legend:
[1] = test system: integrin αVβ3 / αVβ5; conditions: cited from earlier work
Source text: A radiolabeled probe based on this bicyclic peptide, [^125I]bcRGD, was synthesized and shown to selectively accumulate in αVβ3-expressing cancer cells and xenograft models in mice. However, like many l ...

[2] = Albumin binding, size-exclusion spin column elution after incubation with mouse plasma; assay type: in vitro ADME; conditions: 37 kBq in 50 μL PBS(–) incubated 37 °C 10 min with 200 μL mouse plasma (male ddY); Sephadex G-50 Fine spin column, 2000 rpm 2 min; γ-counter; eluted/added radioactivity × 100
Procedure: To assess albumin binding, mouse plasma was obtained by centrifugation of whole blood from male ddY mice (9 weeks old). [^125I]bcRGD, [^125I]bcRGDpal, [^125I]bcRGDiba, or [^125I]bcRGDdimer (37 kBq) in 50 μL PBS(–) was incubated at 37 °C for 10 min with 200 μL of PBS(–), mouse plasma, or human serum albumin (HSA, 45 mg/mL in PBS(–); Wako Pure Chemical Industries, Osaka, Japan). The mixtures were applied to gel filtration spin columns (Sephadex G-50 Fine; Cytiva, Tokyo, Japan), centrifuged (2000 rpm, 2 min), and radioactivity in the eluted fraction was measured with a γ-counter. The high molecular weight fraction was calculated as the elution ratio = (radioactivity in elution)/(added radioactivity) × 100 (%).

[3] = Octanol–water distribution coefficient (log D); assay type: physicochemical; conditions: shake-flask 1-octanol/PBS(–) pH 7.4, 1.0 mL each (1:1), 40 kBq, vortexed 2 min, centrifuged 5000 rpm 5 min, radioactivity by γ-counter, mean of n = 4
Procedure: For log D determination, [^125I]bcRGD, [^125I]bcRGDpal, [^125I]bcRGDiba, or [^125I]bcRGDdimer (40 kBq) was dissolved in 1.0 mL PBS(–) (pH 7.4) and mixed with 1.0 mL 1-octanol (1:1, v/v). The mixture was vortexed for 2 min and centrifuged at 5000 rpm for 5 min. Radioactivity in 0.5 mL of each phase was measured using a γ-counter, and log D values were calculated based on the radioactivity distribution (n = 4).

[4] = Biodistribution in U-87 MG tumor-bearing mice; assay type: in vivo, BALB/c nu-nu mice; conditions: mouse, total radioactivity, 2 h post-administration, tumor-bearing mice, comparator value, no method or n printed for this probe
Procedure: Animal experiments were performed in compliance with institutional animal care regulations, with the study protocol approved by the Experimental Animal Committee of Osaka Medical and Pharmaceutical University (Approval Numbers: 21–76, 22–76, and 23–76). Four-week-old male BALB/c nu-nu mice (Japan SLC, Shizuoka, Japan) were housed under a 12 h light/12 h dark cycle with free access to food and water. Tumor-bearing mice were established by suspending U-87 MG cells (2 × 10^6 cells/mouse) in PBS(–) and subcutaneously injecting 100 μL of the suspension into the right hind leg. For co-implantation models, A549 cells (2 × 10^6 cells/mouse) were suspended in PBS(–) and inoculated (100 μL) into the left hind leg of the same mice already inoculated with U-87 MG cells. Mice with tumor size approximately 10 mm in diameter, 4–5 weeks after inoculation, were used for biodistribution studies. Animals in which either tumor was not viable were excluded from the experiment.
U-87 MG-bearing mice (n = 42, 8–9 weeks old; 22–27 g) were randomly assigned into groups and administered [^125I]bcRGDpal or [^125I]bcRGDiba via intravenous injection (37 kBq in 100 μL of PBS containing 0.1% Tween 80 (PBS-T80)). At 5 min, 30 min, 1 h, 2 h, 6 h, 12 h, or 24 h post-injection, the mice were euthanized (n = 3 per time point). The heart, kidneys, liver, brain, pancreas, spleen, lung, small intestine, large intestine, muscle, skin, stomach, bone, and tumors were excised. Each organ’s weight and radioactivity were measured by a NaI well-type scintillation counter, and the % ID/g was calculated. To investigate the correlation between integrin expression and radioactivity accumulation, biodistribution at 2 h after administration of [^125I]bcRGDpal or [^125I]bcRGDiba was assessed in A549 and U-87 MG co-implantation mice (n = 5) using the same procedure. Additionally, co-implantation mice were injected with [^125I]bcRGDdimer (37 kBq/100 μL PBS-T80) and euthanized at 30 min, 2 h, and 4 h post-injection (n = 4 per time point), and % ID/g values were calculated as described above. The minimum sample size needed for the biodistribution study in U-87 MG-bearing mice was calculated using G Power software version 3.1.9.7. The calculation was based on a two-tailed test, with an effect size of 3.9, a significance level (α) of 0.05, and a statistical power (1 − β) of 0.8. […] The minimum required sample size for the biodistribution study in A549 and U-87 MG co-implantation mice was also calculated to be four animals per group (effect size = 2.5, α = 0.05, 1 − β = 0.8). To guarantee objective results, the experiment was carried out in a blinded manner. Specifically, drug administration and radioactivity measurements were conducted by different investigators to eliminate potential bias.

[5] = target: T1, human serum albumin (human, UniProt P02768 25-609); assay: SEC; [^125I]-peptide (37 kBq in 50 μL PBS(-)) with 200 μL HSA (45 mg/mL in PBS(-)), 37 °C, 10 min; Sephadex G-50 Fine gel filtration spin column, 2000 rpm, 2 min; radioactivity in the eluted high molecular weight fraction as % of that added; conditions: both partners purified
T1 construct: human serum albumin, 45 mg/mL in PBS(-); also called HSA; source: bought: Wako Pure Chemical Industries

## cyclo-(RGDfK)
[1]
  αVβ3/αVβ5 selectivity ratio (ratio of corresponding IC50 values): 0.2

## cilengitide
[1]
  αVβ3/αVβ5 selectivity ratio (ratio of corresponding IC50 values): 4.7

## CC(=O)N[C@@H](CCCCNC(=O)c1cccc(I)c1)C(=O)N1CCC[C@H]1C(=O)N1CCC[C@H]1C(=O)N1CCC[C@H]1C(=O)N[C@@H](CO)C(=O)NCC(=O)Nc1ccc(C(=O)N[C@@H](CO)C(=O)NCC(=O)N[C@H]2CSCc3cc4cc(c3)CSC[C@@H](NC(=O)[C@H](CCC(N)=O)NC(=O)[C@@H]3CCCN3C(=O)[C@H](Cc3c[nH]cn3)NC2=O)C(=O)N[C@@H](CCCNC(=N)N)C(=O)NCC(=O)N[C@@H](CC(=O)O)C(=O)N[C@@H](C(N)=O)CSC4)cc1 [[^125I]bcRGD, reference compound] (Ac-K(Benzoyl(3-I))PPPSG[4Abz]SGCHPQ[dC]RGD[dC]-NH2; linker 10-14-18 via TBMB)
[2]
  Elution rate from size-exclusion resin (high molecular weight fraction), mouse plasma: 2%
[3]
  logD: -2.02
[4]; U-87 MG tumor, read-out: Tumor-accumulated radioactivity (U-87 MG)
  tissue uptake at 2 h: 0.7 %ID/g
[4]; blood, read-out: Blood radioactivity level
  tissue uptake at 2 h: 0.3 %ID/g

B1: [^125I]bcRGDiba (peptide)
chain: {4‑(p-iodophenyl)butyryl}-K((125I)3‑iodobenzoyl)PPPSG[4Abz]SGCHPQ[dC]RGD[dC]-NH2
modifications: linker 10-14-18 via TBMB (inferred)
[5]
  elution ratio (high molecular weight fraction) with HSA: 60%

B2: [^125I]bcRGDpal (peptide)
chain: Palmitoyl-K((125I)3‑iodobenzoyl)PPPSG[4Abz]SGCHPQ[dC]RGD[dC]-NH2
modifications: linker 10-14-18 via TBMB (inferred)
[5]
  elution ratio (high molecular weight fraction) with HSA: 80%
